Test results: the supplement of paper PMC10307832

Columns and labels:
Test in all cases: relative viability (nuclei count vs DMSO), 5 days (fraction); higher = more cells survive
NCI-H1793 = tested on: NCI-H1793
Outline: (§1)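 Lung cancer cell lines in 1536-well plates got either a single drug or a fixed anchor-drug dose together with five library-drug doses (not always all listed) in √10 steps, by pin tool, on the day after seeding. Nuclei were counted after 5 days, and relative viability is the treated-to-vehicle ratio of nuclei counts. Values are medians of duplicate plates.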

NCI-H1915 = tested on: NCI-H1915
Outline: as §1

NCI-H1944 = tested on: NCI-H1944
Outline: as §1

NCI-H1975 = tested on: NCI-H1975
Outline: as §1

NCI-H2085 = tested on: NCI-H2085
Outline: as §1

NCI-H2170 = tested on: NCI-H2170
Outline: as §1

NCI-H2342 = tested on: NCI-H2342
Outline: as §1

NCI-H358 = tested on: NCI-H358
Outline: as §1

NCI-H460 = tested on: NCI-H460
Outline: as §1

SK-LU-1 = tested on: SK-LU-1
Outline: as §1

SW 900 = tested on: SW 900
Outline: as §1

UMC-11 = tested on: UMC-11
Outline: as §1

In the case of Clc1ccc(Nc2nnc(Cc3ccncc3)c3ccccc23)cc1 [Vatalanib] + N=C(N)NC(=N)NCCc1ccccc1 [Phenformin] (partner 250 µM), the relative viability (NCI-H1793; first compound 0.04 µM) is reported as 0.354, the relative viability (NCI-H1793; first compound 0.1265 µM) is reported as 0.341 and the relative viability (NCI-H1793; first compound 0.4 µM) is reported as 0.435. For the same compound, the relative viability (NCI-H1793; first compound 1.265 µM) was 0.295, the relative viability (NCI-H1793; first compound 4 µM) was 0.296 and the relative viability (NCI-H1915; first compound 0.04 µM) was 0.374. For the same compound, the relative viability (NCI-H1915; first compound 0.1265 µM) was 0.345, the relative viability (NCI-H1915; first compound 0.4 µM) was 0.399 and the relative viability (NCI-H1915; first compound 1.265 µM) was 0.38. The relative viability (NCI-H1915; first compound 4 µM) was 0.371, the relative viability (NCI-H1944; first compound 0.04 µM) was 0.221 and the relative viability (NCI-H1944; first compound 0.1265 µM) was 0.198. The relative viability (NCI-H1944; first compound 0.4 µM) was 0.212, the relative viability (NCI-H1944; first compound 1.265 µM) was 0.188 and the relative viability (NCI-H1944; first compound 4 µM) was 0.19. For the same compound, the relative viability (NCI-H1975; first compound 0.04 µM) was 0.405, the relative viability (NCI-H1975; first compound 0.1265 µM) was 0.415 and the relative viability (NCI-H1975; first compound 0.4 µM) was 0.422. For the same compound, the relative viability (NCI-H1975; first compound 1.265 µM) was 0.357, the relative viability (NCI-H1975; first compound 4 µM) was 0.4 and the relative viability (NCI-H2085; first compound 0.04 µM) was 0.701. For the same compound, the relative viability (NCI-H2085; first compound 0.1265 µM) was 0.668, the relative viability (NCI-H2085; first compound 0.4 µM) was 0.734 and the relative viability (NCI-H2085; first compound 1.265 µM) was 0.724. The relative viability (NCI-H2085; first compound 4 µM) was 0.632, the relative viability (NCI-H2170; first compound 0.04 µM) was 0.437 and the relative viability (NCI-H2170; first compound 0.1265 µM) was 0.476. The relative viability (NCI-H2170; first compound 0.4 µM) was 0.469, the relative viability (NCI-H2170; first compound 1.265 µM) was 0.405 and the relative viability (NCI-H2170; first compound 4 µM) was 0.353. It also gave a relative viability (NCI-H2342; first compound 0.04 µM) of 0.573, a relative viability (NCI-H2342; first compound 0.1265 µM) of 0.477 and a relative viability (NCI-H2342; first compound 0.4 µM) of 0.461. For the same compound, the relative viability (NCI-H2342; first compound 1.265 µM) was 0.652, the relative viability (NCI-H2342; first compound 4 µM) was 0.53 and the relative viability (NCI-H358; first compound 0.04 µM) was 0.32. It also gave a relative viability (NCI-H358; first compound 0.1265 µM) of 0.304, a relative viability (NCI-H358; first compound 0.4 µM) of 0.381 and a relative viability (NCI-H358; first compound 1.265 µM) of 0.367. For the same compound, the relative viability (NCI-H358; first compound 4 µM) was 0.326, the relative viability (NCI-H460; first compound 0.04 µM) was 0.582 and the relative viability (NCI-H460; first compound 0.1265 µM) was 0.539. The relative viability (NCI-H460; first compound 0.4 µM) was 0.556, the relative viability (NCI-H460; first compound 1.265 µM) was 0.51 and the relative viability (NCI-H460; first compound 4 µM) was 0.432. For the same compound, the relative viability (SK-LU-1; first compound 0.04 µM) was 0.631, the relative viability (SK-LU-1; first compound 0.1265 µM) was 0.462 and the relative viability (SK-LU-1; first compound 0.4 µM) was 0.663. It also gave a relative viability (SK-LU-1; first compound 1.265 µM) of 0.494, a relative viability (SK-LU-1; first compound 4 µM) of 0.52 and a relative viability (SW 900; first compound 0.1265 µM) of 0.689. The relative viability (SW 900; first compound 0.4 µM) was 0.539, the relative viability (SW 900; first compound 1.265 µM) was 0.458 and the relative viability (SW 900; first compound 4 µM) was 0.544. It also gave a relative viability (UMC-11; first compound 0.04 µM) of 0.311, a relative viability (UMC-11; first compound 0.1265 µM) of 0.328 and a relative viability (UMC-11; first compound 0.4 µM) of 0.319. It also gave a relative viability (UMC-11; first compound 1.265 µM) of 0.298 and a relative viability (UMC-11; first compound 4 µM) of 0.333.
